Values of other authors, collected in patent US11707436B2, “Methods of treating inflammatory disorders and global inflammation with compositions comprising phospholipid nanoparticle encapsulations of NSAIDS” (NanoSphere Health Sciences, LLC, priority 2014, dated 2023).
≈ marks a conversion by molar mass, not a printed value. One block for each compound: values may come before it.

Tests used:
NF-KappaB [1] = conditions: highly variable efficacy
NF-KappaB [2] = conditions: for inhibition of NF-kappaB activity: concentrations comparable to those used in therapy; for inhibition of activation of the NF-KappaB pathway: concentrations measured in serum of treated patients
[3] = renal colic
[4] = after removal of lower third molars
[5] = clinical studies
[6] = for Solubility of NSAIDs at 25 C: source drugbank.ca

SMILES: COc1ccc2cc([C@H](C)C(=O)O)ccc2c1 [Naproxen]
inhibition of TNF-induced NF-KappaB activation (NF-KappaB [1]): inhibited
inhibition of NF-kappaB activity (NF-KappaB [2]): effectively inhibit

SMILES: CN1C(C(=O)Nc2ccccn2)=C(O)c2ccccc2S1(=O)=O [piroxicam]
efficacy of sublingual versus IM injection [3]: as effective as the IM injection
pain scores, oral versus sublingual route [4]: no significant differences

SMILES: COc1cc(/C=C/C(=O)CC(=O)/C=C/c2ccc(O)c(OC)c2)ccc1O [curcumin]
inhibition of TNF-induced NF-KappaB activation (NF-KappaB [1]): inhibited

concentrations in CSF [5]: minimal concentrations
SMILES: CC(C(=O)O)c1ccc(N2CC=CC2)c(Cl)c1 (centres unmarked) [piroprofen]

SMILES: O=C([O-])c1ccccc1O.[Na+] [salicylate, sodium salicylate]
inhibition of activation of the NF-KappaB pathway (NF-KappaB [2]): inhibit activation

SMILES: CC1=C(CC(=O)O)c2cc(F)ccc2/C1=C\c1ccc([S+](C)[O-])cc1 (centres unmarked) [sulindac]
inhibition of TNF-induced NF-KappaB activation (NF-KappaB [1]): inhibited

Solubility of NSAIDs at 25 C [6]: 50000 µg/mL
SMILES: O=C(O)Cc1ccccc1Nc1c(Cl)cccc1Cl [Diclofenac]

concentrations in CSF [5]: minimal concentrations
Solubility of NSAIDs at 25 C [6]: 937 µg/mL
SMILES: COc1ccc2c(c1)c(CC(=O)O)c(C)n2C(=O)c1ccc(Cl)cc1 [Indomethacin]

concentrations in CSF [5]: minimal concentrations
SMILES: CC(C(=O)O)c1cccc(C(=O)c2ccccc2)c1 (centres unmarked) [Ketoprofen]

Solubility of NSAIDs at 25 C [6]: 3300 µg/mL
SMILES: CC(=O)Oc1ccccc1C(=O)O [Acetylsalicylic acid]
inhibition of TNF-induced NF-KappaB activation (NF-KappaB [1]): inhibited
inhibition of NF-kappaB activity (NF-KappaB [2]): effectively inhibit
inhibition of activation of the NF-KappaB pathway (NF-KappaB [2]): inhibit activation

SMILES: C=C(C)[C@@H]1CCC(C)=C[C@H]1c1c(O)cc(CCCCC)cc1O [Cannabidiol]
NF-Kappa B activation, pro-inflammatory cytokines and mediators (TNF-alpha, iNOS) (NF-Kappa B): attenuate
solubility in water ([6]; words only): insolubility in water

SMILES: Oc1ccc(C=Cc2cc(O)cc(O)c2)cc1 [resveratrol]
inhibition of TNF-induced NF-KappaB activation (NF-KappaB [1]): inhibited

Solubility of NSAIDs at 25 C [6]: 21000 µg/mL
solubility water at 25° C [6]: 21000 µg/mL (≈ 102 mM)
SMILES: CC(C)Cc1ccc(C(C)C(=O)O)cc1 (centres unmarked) [Ibuprofen]
inhibition of TNF-induced NF-KappaB activation (NF-KappaB [1]): inhibited
inhibition of NF-kappaB activity (NF-KappaB [2]): effectively inhibit

SMILES: O=C(O)c1ccccc1O [Salicylic acid]
Solubility of NSAIDs at 25 C [6]: 3000 µg/mL
solubility water at 25° C [6]: 3000 µg/mL (≈ 21.7 mM)

SMILES: CC/C(=C(\c1ccccc1)c1ccc(OCCN(C)C)cc1)c1ccccc1 [tamoxifen]
inhibition of TNF-induced NF-KappaB activation (NF-KappaB [1]): inhibited
